According to publication PMC9541285, “Drug‐dependent inhibition of nucleotide hydrolysis in the heterodimeric ABC multidrug transporter PatAB from Streptococcus pneumoniae” (The Febs Journal, 2022):

Tests used:
PatAB (PatA^WTB^WT) [1] = target: T1, PatAB (PatA^WTB^WT) (Streptococcus pneumoniae, UniProt A0ACD7PU88+Q8DN70); assay: ATPase inhibition, malachite green Pi assay; assay type: biochemical
T1 construct: gene ABC-NP; full length; N-terminal His6-PatA and C-terminal PatB-His10, tags kept; coexpressed in Lactococcus lactis NZ9000 ΔlmrA ΔlmrCD

PatAB (PatA^WTB^WT) [2] = target: T2, PatAB (PatA^WTB^WT) (Streptococcus pneumoniae, UniProt A0ACD7PU88+Q8DN70, Q8DN70:Q521A); assay: biochemical
T2 construct: gene ABC-NP
Source text: ATPase inhibition, malachite green Pi assay on PatAB (PatA^WTB^WT)

PatAB (PatA^WTB^WT) [3] = target: T1, PatAB (PatA^WTB^WT); assay: competition with EMA photolabelling, in-gel fluorescence; assay type: binding; details: 20-fold excess over EMA, membrane vesicles; also transported substrate (efflux from L. lactis cells)
PatAB (PatA^WTB^WT) [4] = target: T1, PatAB (PatA^WTB^WT); assay: fluorescence anisotropy titration; assay type: binding
[5] = test system: Nc1nc2c(ncn2[C@@H]2O[C@H](COP(=O)(O)OP(=O)(O)OP(=O)(O)O)[C@@H](O)[C@H]2O)c(=O)[nH]1; assay: GTPase, malachite green Pi assay; assay type: biochemical, Streptococcus pneumoniae; details: 10 mM MgCl2, pH 7.0, 30 °C, DDM, no drug

CC[N+](C)(CC)CCC[n+]1c(-c2ccccc2)c2cc(N)ccc2c2ccc(N)cc21 [Propidium]
IC50 (PatAB (PatA^WTB^WT) [1]): 0.9 ± 0.6 µM
IC50 (PatAB (PatA^WTB^WT) [2]): 0.9 ± 0.8 µM

COc1cccc2c1C(=O)c1c(O)c3c(c(O)c1C2=O)C[C@@](O)(C(C)=O)C[C@@H]3O[C@H]1C[C@H](N)[C@H](O)[C@H](C)O1 [daunomycin]
% reduction in EMA incorporation (PatAB (PatA^WTB^WT) [3]): 75%

CO[C@@H]1[C@@H](OC(N)=O)[C@@H](O)[C@H](Oc2ccc3c(O)c(NC(=O)c4ccc(O)c(CC=C(C)C)c4)c(=O)oc3c2C)OC1(C)C [Novobiocin]
IC50 (PatAB (PatA^WTB^WT) [1]): 4.6 ± 1.7 µM
IC50 (PatAB (PatA^WTB^WT) [2]): 9.7 ± 2 µM

CC[n+]1c(-c2ccccc2)c2cc(N)ccc2c2ccc(N)cc21 [Ethidium]
IC50 (PatAB (PatA^WTB^WT) [1]): 7.1 ± 1.8 µM
Kd (PatAB (PatA^WTB^WT) [4]): 0.103 µM
IC50 (PatAB (PatA^WTB^WT) [2]): 6.5 ± 1.7 µM

CO[C@@H]1[C@@H](OC(=O)c2ccc(C)[nH]2)[C@@H](O)[C@H](Oc2ccc3c(O)c(NC(=O)c4c[nH]c(C(=O)Nc5c(O)c6ccc(O[C@@H]7OC(C)(C)[C@H](OC)[C@@H](OC(=O)c8ccc(C)[nH]8)[C@H]7O)c(C)c6oc5=O)c4C)c(=O)oc3c2C)OC1(C)C [Coumermycin A1]
IC50 (PatAB (PatA^WTB^WT) [1]): 3.7 ± 0.4 µM
IC50 (PatAB (PatA^WTB^WT) [2]): 3 ± 1 µM

PatAB (PatA^WTB^WT) (Streptococcus pneumoniae)
Km [5]: 1100 ± 400 µM
